Source: patent publication US20100173900A1, “Strobilurins for Increasing the Resistance of Plants to Abiotic Stress” (BASF SE, priority 2008, published 2010)

Tests used:
[1] = system: corn plants; test: Corn behavior under freeze conditions (dead plants); assay type: in vivo; settings: seed treatment 5 g a.s./100 kg seed, 3 h at −5 ° C. ten or eleven days after sowing, counted one day after freeze exposure
Method: Exposure times and temperatures were selected to show sufficient damage to the plants so that treatment differences could be observed.
Corn seeds were treated with pyraclostrobin (5 g of active substance per 100 kg seed) or with azoxystrobin (5 g of active substance per 100 kg seed). The treatment was effected by means of a HEGE 11 seed treatment apparatus. One day after the treatment, the seeds were sown into pots with sandy loam soil. One part of the corn plants was exposed for 3 h to −5 ° C. ten days after sowing, and the other plants eleven days after sowing. In each case, the number of dead plants was counted one day after the freeze exposure. The results are compiled as mean percentage values (relative to 100% of living plants before exposure to freezing temperatures) in table 3 below.

[2] = system: cotton plants; test: Cotton behavior under freeze conditions (dead plants); assay type: in vivo; settings: 4 h at −5° C. in BBCH growth stage 10, counted three days after freeze exposure
Method: Cotton seeds were treated either with pyraclostrobin (20 g of active substance per 100 kg seed) or with azoxystrobin (19 g of active substance per 100 kg seed). The treatment was effected by means of a HEGE 11 seed treatment apparatus. After the treatment, the seeds were sown into pots. When the cotton plants were in the BBCH growth stage 10, they were exposed for 4 h to −5° C. Three days after the freeze exposure, the number of dead plants was counted. The results are compiled as mean percentage values (relative to 100% of living plants before exposure to freezing temperatures) in table 8 below.

[3] = system: sugar beet plants; test: Sugar beet behavior under freeze conditions (dead plants); assay type: in vivo; settings: seed treatment 30 g a.s./100 kg seed
Method: Sugar beet seeds were treated with pyraclostrobin (30 g of active substance per 100 kg seed). The treatment was effected by means of a HEGE 11 seed treatment apparatus. After the treatment, the seeds were sown into pots with a sandy loam soil/sand mixture (2:1 v/v; 2 seeds per pot). One part of the sugar beet plants was exposed for 3 h to −5° C. when they were in the BBCH growth stage 10, and the other plants when they were in the BBCH growth stage 11. In each case, the number of dead plants was counted three days after the freeze exposure. The results are compiled as mean percentage values (relative to 100% of living plants before exposure to freezing temperatures) in table 5 below.

[4] = system: corn plants; test: Emergence behavior of corn after seed treatment, cold and variable temperatures; assay type: in vivo; settings: seed treatment 5 g a.s./100 kg seed, 7 days at 10° C., 4 days at 24° C., then 10° C.
Method: (§1) The emergence behavior of corn plants the seeds of which had been treated with pyraclostrobin and which were exposed after sowing to cold and variable temperatures was studied following the guidelines for germination testing according to the Association of Official Seed Analysts (AOSA, 2005). For this purpose, corn seeds were treated with pyraclostrobin (5 g active substance per 100 kg seed). The treatment was effected by means of a HEGE 11 seed treatment apparatus. After the treatment, the seeds were sown into sand trays (2×100 seeds per tray). The sand trays were placed in an incubator and submitted to following temperature regimen: 7 days at 10° C.-4 days at 24° C.-then 10 ° C. 9, 10 and 29 days after sowing (=DAP=days after planting), the number of seeds which had given rise to plants was counted. The results are compiled as mean values in table 1. A value of 100% means that all sown seeds have given rise to plants.

[5] = system: corn plants; test: Plant height (stem length) and root length of corn, cold and variable temperatures; assay type: in vivo; settings: seed treatment 5 g a.s./100 kg seed, cold/variable temperature regimen of example 1, 23 days after sowing
Method: as §1
23 days after sowing (see example 1) the stem length (=length from the soil line to the meristem) and the root length of the plants was measured. The results are compiled as mean values in table 2 below.

[6] = system: sugar beet plants; test: Emergence behavior of sugar beet at cold temperature; assay type: in vivo; settings: seed treatment 30 g a.s./100 kg seed, kept at 10° C.
Method: The emergence behavior of sugar beet plants the seeds of which had been treated with pyraclostrobin and which were exposed after sowing to cold temperatures was studied following the guidelines for germination testing according to the Association of Official Seed Analysts (AOSA, 2005). For this purpose, sugar beet seeds were treated with pyraclostrobin (30 g active substance per 100 kg seed). The treatment was effected by means of a HEGE 11 seed treatment apparatus. After the treatment, the seeds were sown into pots with a sandy loam soil/sand mixture (2:1 v/v; 2 seeds per pot). The pots were placed in an incubator and kept at 10° C. 13, 15, 16, 17 and 20 days after sowing (=DAP=days after planting), the number of seeds which had given rise to plants was counted. The results are compiled as mean values in table 4. A value of 100% means that all sown seeds have given rise to plants.

[7] = system: corn plants; test: Corn field trial under frost conditions, Beaver Crossing; assay type: in vivo; settings: 5 g a.s./100 kg seed in addition to Maxim XL and Apron XL
Method: For avoiding fungal stress which could give misleading test results especially under cold temperature, all corn seeds were treated with Maxim XL (fludioxonil; 3.5 g of active substance per 100 kg seed) and Apron XL (mefenoxam; 1 g of active substance per 100 kg seed). A part of the seeds was additionally treated with pyraclostrobin (5 g of active substance per 100 kg seed). The treatment was effected by means of a HEGE 11 seed treatment apparatus. The seeds were sown every 5 days starting from Sep. 6, 2007 in 1.75″ deep on clean tilled soil in Beaver Crossing, NE, USA. Frost occurred on Oct. 22/23, 2007 (−0.1° C. for 1 h), Oct. 23/24 (−0.1° C. for 1 h), 2007 and Oct. 24/25, 2007 (0° C. for 1 h, −1.1° C. for 1.5 h and 0° C. for 1 h). 47 days after sowing (=DAP; days after planting), the number emerged plants and their height was assessed. 50 DAP, the extent of dead tissue was assessed. The results are compiled as mean values in table 11 below.

[8] = system: soybean plants; test: Soybean behavior under freeze conditions (dead plants); assay type: in vivo; settings: seed treatment 5 g a.s./100 kg seed, 3.5 h at −7° C. in BBCH growth stage 9, counted three days after freeze exposure
Method: (§2) Soybean seeds were treated with pyraclostrobin (5 g of active substance per 100 kg seed). The treatment was effected by means of a HEGE 11 seed treatment apparatus. After the treatment, the seeds were sown into pots. When the soybean plants were in the BBCH growth stage 9, they were exposed for 3.5 h to −7° C. Three days after the freeze exposure, the number of dead plants was counted. The results are compiled as mean percentage values (relative to 100% of living plants before exposure to freezing temperatures) in table 6 below.

[9] = system: spring wheat plants; test: Spring wheat behavior under freeze conditions (dead plants); assay type: in vivo; settings: seed treatment 5 g a.s./100 kg seed, 2 h at −10° C. in BBCH growth stage 11, counted three days after freeze exposure
Method: as §2, with “Spring wheat” for “Soybean”, “spring wheat” for “soybean”, “11,” for “9,”, “2” for “3.5”, “−10°” for “−7°”, “7” for “6”

[10] = system: canola plants; test: Canola behavior under freeze conditions (dead plants); assay type: in vivo, canola (oilseed rape); settings: seed treatment 10 g a.s./100 kg seed, 1 h at −10° C. in BBCH growth stage 10, counted three days after freeze exposure
Method: Canola (oilseed rape) seeds were treated either with pyraclostrobin (10 g of active substance per 100 kg seed) or with trifloxystrobin (10 g of active substance per 100 kg seed). The treatment was effected by means of a HEGE 11 seed treatment apparatus. After the treatment, the seeds were sown into pots. When the canola plants were in the BBCH growth stage 10, they were exposed for 1 h to −10° C. Three days after the freeze exposure, the number of dead plants was counted. The results are compiled as mean percentage values (relative to 100% of living plants before exposure to freezing temperatures) in table 9 below.

[11] = system: corn plants; test: Corn field trial, Burrus Seed Farms; assay type: in vivo; settings: 5 g a.s./100 kg seed in addition to Maxim XL and Apron XL, 35 DAP
Method: For avoiding fungal stress which could give misleading test results especially under cold temperature, all corn seeds were treated with Maxim XL (fludioxonil; 3.5 g of active substance per 100 kg seed) and Apron XL (mefenoxam; 1 g of active substance per 100 kg seed). A part of the seeds was additionally treated with pyraclostrobin (5 g of active substance per 100 kg seed). The treatment was effected by means of a HEGE 11 seed treatment apparatus. On Sep. 26, 2007, the seeds were sown in Burrus Seed Farms, Illinois, USA. 35 days after sowing (=DAP; days after planting), the number of intact, injured and dead plants was assessed. The results are compiled as mean percentage values (relative to total number of plants=100%) in table 10 below.

CO/C=C(/C(=O)OC)c1ccccc1Oc1cc(Oc2ccccc2C#N)ncn1 [azoxystrobin] gave a Dead plants [1] of 31% and a Dead plants ([2]; seed treatment 19 g a.s./100 kg seed) of 24%.
With COC(=O)N(OC)c1ccccc1COc1ccn(-c2ccc(Cl)cc2)n1 [pyraclostrobin] the Dead plants ([3]; 3 h at −5° C. in BBCH growth stage 10, counted three days after freeze exposure) was 12%, the Dead plants ([3]; 3 h at −5° C. in BBCH growth stage 11, counted three days after freeze exposure) was 17% and the Emergence ([4]; 9 DAP) was 81%. The Emergence ([4]; 10 DAP) was 97%, the Emergence ([4]; 29 DAP) was 100% and the Dead plants [1] was 36%. The Root length [5] was 13.3 cm, the Stem length [5] was 11.2 cm and the Emergence ([6]; 13 DAP) was 23%. It also gave an Emergence ([6]; 15 DAP) of 45%, an Emergence ([6]; 16 DAP) of 57% and an Emergence ([6]; 17 DAP) of 73%. For the same molecule, the Emergence ([6]; 20 DAP) was 90%, the “No. of plants emerged” value ([7]; 47 DAP) was 19 and the Plant height ([7]; 47 DAP) was 1.25 inches. It also gave a Dead tissue ([7]; 50 DAP) of 63%, a Dead plants [8] of 18% and a Dead plants ([2]; seed treatment 20 g a.s./100 kg seed) of 17%. The Dead plants [9] was 18%, the Dead plants [10] was 40% and the Dead plants [11] was 29%. For the same molecule, the Plants with injury [11] was 35% and the “Plants with no injury” value [11] was 34%.
With CON=C(C(=O)OC)c1ccccc1CON=C(C)c1cccc(C(F)(F)F)c1 [trifloxystrobin] the Dead plants [10] was 42%.
